Drawing on ChEMBL document CHEMBL1141231, “Discovery and development of a new class of potent, selective, orally active oxytocin receptor antagonists” (J Med Chem, 2005), this text covers Ki for 25 compounds.

The target of one experiment is T1, Oxytocin receptor (Homo sapiens, UniProt P30559).
T1 sequence (P30559 whole entry): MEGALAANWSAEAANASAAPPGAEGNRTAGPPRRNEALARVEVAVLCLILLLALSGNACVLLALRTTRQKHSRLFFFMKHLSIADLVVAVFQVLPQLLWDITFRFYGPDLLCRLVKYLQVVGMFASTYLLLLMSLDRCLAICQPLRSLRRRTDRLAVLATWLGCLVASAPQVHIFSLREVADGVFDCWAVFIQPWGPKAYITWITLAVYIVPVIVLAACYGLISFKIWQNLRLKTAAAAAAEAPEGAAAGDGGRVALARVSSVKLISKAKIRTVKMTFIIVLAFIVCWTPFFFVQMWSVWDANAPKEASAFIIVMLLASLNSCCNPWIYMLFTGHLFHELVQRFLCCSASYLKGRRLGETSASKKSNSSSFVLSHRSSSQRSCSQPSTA
The experiment in a line: biochemical. It is filed as cell-based, HEK293-EBNA.

The target of a further experiment is Vasopressin V1a receptor (Homo sapiens, UniProt P37288). Nature of the experiment: Displacement of [125I]LVA antagonist from human vasopressin 1a receptor expressed in HEK293-EBNA cells. The class given is cell-based. (In general: Displacement assays read how much labelled ligand stays bound in the presence of the test substance.)
Chain of Vasopressin V1a receptor (P37288 whole entry): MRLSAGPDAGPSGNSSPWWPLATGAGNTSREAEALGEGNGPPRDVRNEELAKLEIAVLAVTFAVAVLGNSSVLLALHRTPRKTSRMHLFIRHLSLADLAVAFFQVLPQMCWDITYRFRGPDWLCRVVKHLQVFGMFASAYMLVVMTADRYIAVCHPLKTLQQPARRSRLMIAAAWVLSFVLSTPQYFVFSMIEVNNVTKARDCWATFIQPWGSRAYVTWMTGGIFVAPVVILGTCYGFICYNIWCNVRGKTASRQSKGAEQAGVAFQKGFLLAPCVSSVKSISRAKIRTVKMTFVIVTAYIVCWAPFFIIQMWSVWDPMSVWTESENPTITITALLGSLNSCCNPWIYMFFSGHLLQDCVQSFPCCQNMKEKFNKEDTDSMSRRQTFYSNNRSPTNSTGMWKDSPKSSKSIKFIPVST

As a reminder, the Ki is a dissociation constant, usually derived from enzyme kinetics or from competition with a known ligand. High values mean a looser hold on the target, low ones a stronger hold on the target.

Description for Oxytocin receptor: Displacement of [125I]OVTA antagonist from human oxytocin receptor expressed in HEK293-EBNA cells

Turning to `CCOc1ccc(S(=O)(=O)N(c2ccc(C)cc2)C(C)C(=O)N/N=C2\C(=O)Nc3ccccc32)cc1` (centres undefined), the Ki is 448 nM on Oxytocin receptor and more than 10000 nM on Vasopressin V1a receptor.

Turning to `CCOc1ccc(S(=O)(=O)N(CC(=O)/N=N/c2c(O)[nH]c3ccc(S(=O)(=O)O)cc23)c2ccc(C)cc2)cc1`, the Ki on Oxytocin receptor and on Vasopressin V1a receptor was more than 10000 nM each time.

Compound `Cc1ccc(N(CC(=O)N2CCc3ccccc3C2)S(=O)(=O)c2ccccc2)cc1` showed an inhibitory constant (Ki) at Vasopressin V1a receptor of 325 nM.

For `CCOc1ccc(S(=O)(=O)N(CC(=O)N/N=C(\C)c2c(O)ccc3ccccc23)c2ccc(C)cc2)cc1`, the inhibitory constant (Ki) on Oxytocin receptor and on Vasopressin V1a receptor was more than 10000 nM in each case.

In the case of `Cc1ccc(N(CC(=O)Nc2cccc(Cl)c2C)S(=O)(=O)c2ccccc2)cc1`, the Ki was 93 nM on Oxytocin receptor and more than 10000 nM at Vasopressin V1a receptor.

With `CN(C)CCCOc1ccc(S(=O)(=O)N(CC(=O)/N=N/c2c(O)[nH]c3c(C(=O)O)cccc23)c2ccc(Cl)cc2)cc1`, the inhibitory constant (Ki) at Oxytocin receptor and on Vasopressin V1a receptor was more than 10000 nM in each case.

Regarding `COc1ccc(N(CC(=O)N2CCc3ccccc3C2)S(=O)(=O)c2ccccc2)cc1`, the inhibition constant Ki on Oxytocin receptor was determined as 160 nM; on Vasopressin V1a receptor it was 115 nM.

On to `C/C(=N\NC(=O)CN(c1ccccc1)S(=O)(=O)c1ccccc1)c1ccccc1O`, for which the values for the inhibitory constant (Ki) at Oxytocin receptor and at Vasopressin V1a receptor were 237 nM and more than 10000 nM, respectively.

`CCOc1ccc(N(CC(=O)Nc2cccc(Cl)c2C)S(=O)(=O)c2ccccc2)cc1`: the Ki on Oxytocin receptor and at Vasopressin V1a receptor was more than 10000 nM each time.

As for `CCOc1ccc(S(=O)(=O)N(c2ccc(C)cc2)C(CO)C(=O)N/N=C2\C(=O)Nc3ccccc32)cc1` (centres undefined), the values for the inhibitory constant (Ki) at Oxytocin receptor and on Vasopressin V1a receptor were 1380 nM and more than 10000 nM, respectively.

`CCOc1ccc(S(=O)(=O)N(CC(=O)N/N=C(\C)c2ccc(O)cc2O)c2ccc(C)cc2)cc1`: the inhibitory constant (Ki) at Oxytocin receptor and on Vasopressin V1a receptor was more than 10000 nM in each case.

Consider `CCOc1ccc(S(=O)(=O)N(CC(=O)N/N=C/c2ccccc2N)c2ccc(C)cc2)cc1`, for which the inhibition constant Ki at Oxytocin receptor and at Vasopressin V1a receptor was more than 10000 nM throughout.

Consider `COc1ccc(S(=O)(=O)N(CC(=O)N/N=C2/C(=O)Nc3ccccc32)c2ccc(C)cc2)cc1`, for which the Ki on Oxytocin receptor was found to be 20 nM; at Vasopressin V1a receptor, 437 nM.

Regarding `Cc1ccc(N(CC(=O)NN=C2C(=O)Nc3ccccc32)S(=O)(=O)c2cccc3ccccc23)cc1`, the inhibition constant Ki at Oxytocin receptor is 174 nM; on Vasopressin V1a receptor it was more than 10000 nM.

For the compound `COc1ccc(N(CC(=O)Nc2ccc(Cl)cc2C)S(=O)(=O)c2ccccc2)cc1`, the Ki amounted to 800 nM at Oxytocin receptor and 70 nM at Vasopressin V1a receptor.

On to `CCOc1ccc(S(=O)(=O)N(CC(=O)N/N=C/c2ccccc2NC(C)=O)c2ccc(C)cc2)cc1`, for which the Ki at Oxytocin receptor and on Vasopressin V1a receptor was more than 10000 nM throughout.

As for `CCOc1ccc(S(=O)(=O)N(CC(=O)N/N=C(\C)c2ccc3ccccc3c2O)c2ccc(C)cc2)cc1`, the inhibitory constant (Ki) on Oxytocin receptor and on Vasopressin V1a receptor was more than 10000 nM in each case.

On to `CCC(C)(C)c1ccc(S(=O)(=O)N(CC(=O)N/N=C2\C(=O)Nc3ccccc32)c2ccc(Cl)cc2)cc1`, for which the inhibitory constant (Ki) at Oxytocin receptor is 1750 nM; at Vasopressin V1a receptor, more than 10000 nM.

Take `CCOc1ccc(S(=O)(=O)N(CC(=O)N/N=C/c2ccc(N(CC)CC)cc2O)c2ccc(C)cc2)cc1`: the Ki at Oxytocin receptor and at Vasopressin V1a receptor was more than 10000 nM each time.

Turning to `CCOc1ccc(S(=O)(=O)N(CC(=O)N/N=C/c2ncc[nH]2)c2ccc(Cl)cc2)cc1`, the inhibition constant (Ki) at Oxytocin receptor and on Vasopressin V1a receptor was more than 10000 nM in each case.

Turning to `CCOc1ccc(S(=O)(=O)N(CCC(=O)/N=N/c2c(O)[nH]c3ccccc23)c2ccc(C)cc2)cc1`, the inhibitory constant (Ki) at Oxytocin receptor and on Vasopressin V1a receptor was more than 10000 nM throughout.

`CCOc1ccc(S(=O)(=O)N(CC(=O)/N=N/c2c(O)[nH]c3ccc(I)cc23)c2ccccc2)cc1`: the Ki at Oxytocin receptor and on Vasopressin V1a receptor was more than 10000 nM in each case.

Turning to `COc1ccc(N(CC(=O)Nc2cccc(Cl)c2C)S(=O)(=O)c2ccccc2)cc1`, the results for the Ki on Oxytocin receptor and on Vasopressin V1a receptor were 100 nM and 300 nM, respectively.

For `Cc1c(Cl)cccc1NC(=O)CN(c1ccc(Cl)cc1)S(=O)(=O)c1ccccc1`, the figures for the Ki on Oxytocin receptor and at Vasopressin V1a receptor were 160 nM and more than 10000 nM, respectively.

`C/C(=N\NC(=O)CN(c1cccc(Cl)c1)S(=O)(=O)c1ccccc1)c1ccccc1O`: the Ki at Oxytocin receptor worked out at 4900 nM; on Vasopressin V1a receptor, 600 nM.
